Where two headings read alike, the source gives them in different places.
Biological target: LSD-1 enzyme (Homo sapiens (Human), UniProt O60341)
Assay type: biochemical
Protocol: LANCE LSD1/KDM1A demethylase assay-10 μL of 1 nM LSD-1 enzyme (ENZO BML-SE544-0050) in the assay buffer (50 mM Tris, pH 7.5, 0.01% Tween-20, 25 mM NaCl, 5 mM DTT) were preincubated for 1 hour at 25° C. with 0.8 μL compound/DMSO dotted in black 384 well polystyrene plates. […] After stopping the reactions plates were incubated for 30 minutes and read on a PHERAstar FS plate reader (BMG Labtech).

[1] = 1 nM LSD-1 enzyme, 1 hour preincubation at 25° C., 0.4 μM biotin-labeled histone H3 peptide substrate

Row | Structure (SMILES) | IC50 [1] [µM] | IC50 [µM]
1 | Cc1ccc(-c2c(-c3ccc(C#N)cc3)cc(OC[C@@H]3CCNC3)c3nncn23)cc1 [Example 1, 4-{5-(4-methylphenyl)-8-[(3R)-pyrrolidin-3-ylmethoxy][1,2,4]triazolo[4,3-a]pyridin-6-yl}benzonitrile] | ≤ 0.05 | –
2 | Cc1ccc(-c2c(-c3ccc(C#N)c(F)c3)cc(OC[C@@H]3CCNC3)c3nncn23)cc1 [Example 2, 2-fluoro-4-{5-(4-methylphenyl)-8-[(3R)-pyrrolidin-3-ylmethoxy][1,2,4]triazolo[4,3-a]pyridin-6-yl}benzonitrile] | ≤ 0.05 | –
3 | Cc1ccc(-c2c(-c3ccc(C#N)cc3)cc(OC[C@@H]3CCNC3)c3n[nH]c(=O)n23)cc1 [Example 3, 4-{5-(4-methylphenyl)-3-oxo-8-[(3R)-pyrrolidin-3-ylmethoxy]-2,3-dihydro[1,2,4]triazolo[4,3-a]pyridin-6-yl}benzonitrile] | ≤ 0.05 | –
4 | Cc1ccc(-c2c(-c3ccc(C#N)cc3)cc(OC[C@@H]3CCNC3)c3nn(CC#N)c(=O)n23)cc1 [Example 5, (R)-4-(2-(cyanomethyl)-3-oxo-8-(pyrrolidin-3-ylmethoxy)-5-p-tolyl-2,3-dihydro-[1,2,4]triazolo[4,3-a]pyridin-6-yl)benzonitrile] | – | < 0.05
5 | Cc1ccc(-c2c(-c3ccc(C#N)cc3)cc(OC[C@@H]3CCNC3)c3nn(CCC#N)c(=O)n23)cc1 [Example 6, 4-{2-(2-cyanoethyl)-5-(4-methylphenyl)-3-oxo-8-[(3R)-pyrrolidin-3-ylmethoxy]-2,3-dihydro[1,2,4]triazolo[4,3-a]pyridin-6-yl}benzonitrile] | ≤ 0.05 | –
6 | Cc1ccc(-c2c(-c3ccc(C#N)cc3)cc(OC[C@@H]3CCNC3)c3nn(CC4CCCC4)c(=O)n23)cc1 [Example 7, 4-{2-(cyclopentylmethyl)-5-(4-methylphenyl)-3-oxo-8-[(3R)-pyrrolidin-3-ylmethoxy]-2,3-dihydro[1,2,4]triazolo[4,3-a]pyridin-6-yl}benzonitrile] | – | < 0.05
7 | Cc1ccc(-c2c(-c3ccc(C#N)cc3)cc(OC[C@@H]3CCNC3)c3nn(CC4CCNCC4)c(=O)n23)cc1 [Example 13, 4-{5-(4-methylphenyl)-3-oxo-2-(piperidin-4-ylmethyl)-8-[(3R)-pyrrolidin-3-ylmethoxy]-2,3-dihydro[1,2,4]triazolo[4,3-a]pyridin-6-yl}benzonitrile] | ≤ 0.05 | –
8 | Cc1ccc(-c2c(-c3ccc(C#N)cc3)cc(OC[C@@H]3CCNC3)c3nn(CCOc4ccccc4)c(=O)n23)cc1 [Example 14, 4-{5-(4-methylphenyl)-3-oxo-2-(2-phenoxyethyl)-8-[(3R)-pyrrolidin-3-ylmethoxy]-2,3-dihydro[1,2,4]triazolo[4,3-a]pyridin-6-yl}benzonitrile] | ≤ 0.05 | –
9 | Cc1ccc(-c2c(-c3ccc(C#N)cc3)cc(OC[C@@H]3CCNC3)c3nn(CCN(C)C)c(=O)n23)cc1 [Example 15, 4-{2-[2-(dimethylamino)ethyl]-5-(4-methylphenyl)-3-oxo-8-[(3R)-pyrrolidin-3-ylmethoxy]-2,3-dihydro[1,2,4]triazolo[4,3-a]pyridin-6-yl}benzonitrile] | ≤ 0.05 | –
10 | Cc1ccc(-c2c(-c3ccc(C#N)cc3)cc(OC[C@@H]3CCNC3)c3nn(Cc4ccccc4)c(=O)n23)cc1 [Example 16, 4-{2-benzyl-5-(4-methylphenyl)-3-oxo-8-[(3R)-pyrrolidin-3-ylmethoxy]-2,3-dihydro[1,2,4]triazolo[4,3-a]pyridin-6-yl}benzonitrile] | – | < 0.05
11 | Cc1ccc(-c2c(-c3ccc(C#N)cc3)cc(OC[C@@H]3CCNC3)c3nn(Cc4ccc(C#N)cc4)c(=O)n23)cc1 [Example 17, 4-{2-(4-cyanobenzyl)-5-(4-methylphenyl)-3-oxo-8-[(3R)-pyrrolidin-3-ylmethoxy]-2,3-dihydro[1,2,4]triazolo[4,3-a]pyridin-6-yl}benzonitrile] | ≤ 0.05 | –
